The values below come from PubChem BioAssay AID1159564 (GlaxoSmithKline (GSK), 2015).

The source made the active and inactive calls. How the calls were made is not given here.

The subject of this experiment is L. donovani-infected THP-1 macrophages, intracellular amastigote imaging. Description: intracellular L. donovani amastigote inhibition, imaging, THP-1 host macrophages, host toxicity (AID 1159564).
Where [1] appears, read: measured here: THP-1 host cell toxicity.
[2] abbreviates: measured here: amastigotes per macrophage.

Broadly, the IC50 is the concentration needed to halve the response being measured. `O=C(Nc1n[nH]c(-c2ccccn2)n1)C1CC1c1ccccc1` (stereo not drawn): the IC50 was 7.9 µM. The concentration for half-maximal inhibition (IC50) under setting [1] was found to be 20 µM. Besides, the 50% inhibitory concentration (IC50) under setting [2] came to 7.9 µM.

Turning to `CC(c1ccc2c(c1)CCCC2)N(C)c1ncc2c(N)nc(N)nc2n1` (stereo not drawn), the IC50 was 2 µM. This compound showed an IC50 under setting [1] of 25 µM. For the same compound, the IC50 under setting [2] came to 0.79 µM.

Turning to `CC(C)c1nn(-c2nc(N)nc(-c3ccccn3)n2)c(N)c1C1CCCCC1`, the concentration for half-maximal inhibition (IC50) is 1 µM. Besides, the IC50 under setting [1] came to 5 µM. The IC50 under setting [2] stood at 0.79 µM.

For `C[C@@H](Oc1cc(-n2cnc3ccc(CC(O)CO)cc32)sc1C(N)=O)c1ccccc1Cl` (stereo partly drawn), the IC50 was 40 µM. Besides, the IC50 under setting [1] was 40 µM. Moreover, under setting [2], the IC50 is 32 µM.

For `CC(C)CC(=O)Nc1cc(C2CC2)nn1-c1nc2c(c(=O)[nH]1)CCCC2`, the IC50 was 7.9 µM. Under setting [1], this compound returned a concentration for half-maximal inhibition (IC50) of 5 µM. Under setting [2], this compound yielded an IC50 of 5 µM.

Regarding `O=[N+]([O-])c1ccc(-c2nnn(-c3cccnc3)n2)o1`, the IC50 is > 50 µM (inactive). Further, the IC50 under setting [1] came to 13 µM. This compound had an IC50 under setting [2] of 50 µM.

Take `Nc1nc(-c2ccccn2)nc(-n2nc(-c3ccccc3)cc2N)n1`: the IC50 was 0.79 µM. Under setting [1], the IC50 turned out to be 10 µM. This compound also came in with an IC50 under setting [2] of 0.79 µM.

`Cc1c(C(C)NC(=O)Nc2cccc(Cl)c2)sc2ncnn12` (stereo not drawn): the IC50 was > 50 µM (inactive). Further, the IC50 under setting [1] is over 50 µM. Under setting [2], this compound gave an IC50 of 2 µM.

On to `Cc1nn(-c2nc3ccccc3s2)c2c1C(c1ccc(OCC(N)=O)cc1)SCC(=O)N2` (stereo not drawn), for which the IC50 is > 50 µM (inactive). Also, the IC50 under setting [1] is over 50 µM. This compound came in with an IC50 under setting [2] of over 50 µM.

Take `O=C(CN(c1cccc(C(F)(F)F)c1)S(=O)(=O)c1ccc(Cl)cc1)NCc1ccc(F)c(F)c1`: the IC50 was > 50 µM (inactive). The compound also had an IC50 under setting [1] of 20 µM. Further, the IC50 under setting [2] is over 50 µM.

For `N#Cc1cc(-c2ccnc(Nc3cccc(CN4CCOCC4)c3)n2)ccc1NCCN`, the IC50 was 1.6 µM. The compound further returned an IC50 under setting [1] of 7.9 µM. Under setting [2], this compound returned an IC50 of 0.79 µM.

For the compound `Cc1nn(C)c(Cl)c1CN(Cc1cccnc1)Cc1ccsc1`, the IC50 was > 50 µM (inactive). Moreover, the IC50 under setting [1] is over 50 µM. Under setting [2], this compound returned an IC50 of 3.2 µM.

On to `CCCCNc1nccc(-c2c(-c3ccc(F)cc3)nn3c(N4CCOCC4)cccc23)n1`, for which the concentration for half-maximal inhibition (IC50) is 6.3 µM. Under setting [1], this compound came in with an IC50 of 13 µM. Further, the IC50 under setting [2] was over 50 µM.

On to `O=C(Nc1nc2ccccc2[nH]1)c1ccc2nc[nH]c2c1`, for which the IC50 was 5 µM. In addition, under setting [1], the IC50 was over 50 µM. This compound yielded an IC50 under setting [2] of 3.2 µM.

Regarding `O=S(=O)(NCC(c1cccnc1)N1CCN(c2ccc(F)cc2)CC1)c1cccs1` (stereo not drawn), the IC50 was > 50 µM (inactive). The IC50 under setting [1] was over 50 µM. This compound had an IC50 under setting [2] of over 50 µM.

As for `CN(C)CCN(C)Cc1ccc(Cl)cc1NS(=O)(=O)c1ccc(Cl)c(Cl)c1`, the IC50 is 6.3 µM. Moreover, the IC50 under setting [1] came to 32 µM. Under setting [2], this compound yielded an IC50 of 4 µM.

As to `CC(c1ccccn1)N(C)Cc1nc2ccccc2n1C(C)C` (stereo not drawn), the IC50 was 3.2 µM. For the same compound, the IC50 under setting [1] was 16 µM. The IC50 under setting [2] was found to be 2 µM.

With `CC(C)(C)Nc1nc(Nc2ccc3c(c2)CS(=O)(=O)C3)nc2[nH]ccc12`, the concentration for half-maximal inhibition (IC50) is 6.3 µM. Under setting [1], this compound returned a concentration for half-maximal inhibition (IC50) of 20 µM. The IC50 under setting [2] came to 5 µM.

`NC(=O)c1cc(NC(=O)c2ccccc2COc2ccccc2)ccc1Cl`: the IC50 is 3.2 µM. Under setting [1], this compound displayed an IC50 of 16 µM. Under setting [2], this compound returned an IC50 of 1.6 µM.

For the compound `Cc1c(CNC(=O)c2ccc(Cn3cc(Cl)c([N+](=O)[O-])n3)cc2)cnn1C`, the IC50 is > 50 µM (inactive). For the same compound, the IC50 under setting [1] is over 50 µM. The 50% inhibitory concentration (IC50) under setting [2] is over 50 µM.

In the case of `Cc1c(Nc2cc(C3CC3)[nH]n2)ccc(C#N)c1Cl`, the IC50 is 40 µM. The compound further had an IC50 under setting [1] of 25 µM. Also, the half-inhibitory concentration (IC50) under setting [2] stood at 25 µM.
